Measured values taken from patent publication US20150175530A1, “ANTIBACTERIAL AGENTS” (priority 2012, published 2015).
Converted amounts (≈) assume the structure as drawn. Like-named read-outs stand apart in the source and are kept apart here.

How the values were obtained:
[1] = tested on: bacterial isolates (clinical isolates and ATCC quality control strains); test: Minimum Inhibitory Concentrations (MICs) by broth microdilution (CLSI susceptibility testing); type: cell-based
Protocol: Bacterial isolates were cultivated from −70° C. frozen stocks by overnight passages at 35° C. in ambient air on Mueller-Hinton agar (Beckton Dickinson, Franklin Lakes, N.J.). Clinical isolates tested were obtained from various geographically diverse hospitals in the US and abroad (Focus Diagnostics, Herndon, Va. and JMI, North Liberty, Iowa). Quality control strains were from the American Type Culture Collection (ATCC; Rockville, Md.).
Minimum Inhibitory Concentrations (MICs) were determined by the broth microdilution method in accordance with the Clinical and Laboratory Standards Institute (CLSI) guidelines. In brief, organism suspensions were adjusted to a 0.5 McFarland standard to yield a final inoculum between 3×10^5 and 7×10^5 colony-forming units (CFU)/mL. Drug dilutions and inocula were made in sterile, cation adjusted Mueller-Hinton Broth (Beckton Dickinson). An inoculum volume of 100 μL was added to wells containing 100 μL of broth with 2-fold serial dilutions of drug. All inoculated microdilution trays were incubated in ambient air at 35° C. for 18-24 h. Following incubation, the lowest concentration of the drug that prevented visible growth (OD600 nm<0.05) was recorded as the MIC. Performance of the assay was monitored by the use of laboratory quality-control strains and levofloxacin, a compound with a defined MIC spectrum, in accordance with CLSI guidelines.

[2] = tested on: 3 P. aeruginosa strains (APAE001, APAE002, APAE006); test: Protein binding: fold change in MIC in the presence of 2% HSA and 0.05% AGP, Geomean of 3 strains; type: cell-based, Pseudomonas aeruginosa; conditions: MIC in the presence of 2% HSA and 0.05% AGP divided by MIC in the absence; Geomean of 3 P. aeruginosa strains (APAE001, APAE002, APAE006)
Protocol: The effect of human serum albumin (HSA) and α-1-acid glycoprotein (AGP) from human plasma, which are known to nonspecifically bind to certain antibiotics and thereby reduce their activity (Banéres-Roquet et al. 2009 “Use of a Surface Plasmon Resonance Method to Investigate Antibiotic and Plasma Protein Interactions” Antimicrob. Agents and Chemother. 53(4):1528-1531), was assessed against 3 P. aeruginosa strains (APAE001, APAE002, APAE006). APAE001 is Pseudomonas aeruginosa ATCC27853; APAE002 is a wildtype lab strain of Pseudomonas aeruginosa known as PAM1020 or PA01. APAE006 is a strain of […]/PA01 with efflux deletions: delta mexAB-oprM::CM delta CD-oprJ::Gm delta mexEF-oprN::omega Hg. Lomovskaya, 0 et al. 1999. Use of a Genetic Approach To Evaluate the Consequences of Inhibition of Efflux Pumps in P aeruginosa. Antimicrob. Agents Chemother. 43: 1340-1346.
The standard procedure described in Susceptibility Testing was utilized with one adjustment, specifically 2% HSA and 0.05% AGP were added to the cation adjusted Mueller-Hinton Broth. The MIC for each strain of interest was then assessed in the presence and absence of HSA/AGP. Following MIC determination, the fold change in MIC was determined for each individual strain by dividing the MIC in the presence of HSA/AGP by the MIC in the absence of HSA/AGP. The protein binding Geomean was then calculated using these 3 values.

[3] = APAE1096 is a clinical isolate, broth microdilution, read-out: Minimum Inhibitory Concentrations (MICs) APAE1096
[4] = Pseudomonas aeruginosa, APAE002 is a wildtype lab strain of Pseudomonas aeruginosa known as PAM1020 or PA01, broth microdilution, read-out: Minimum Inhibitory Concentrations (MICs) APAE002
[5] = Pseudomonas aeruginosa, ATCC27853, APAE001 is Pseudomonas aeruginosa ATCC27853, broth microdilution, read-out: Minimum Inhibitory Concentrations (MICs) APAE001
[6] = Pseudomonas aeruginosa, ATCC27853, read-out: Minimum Inhibitory Concentrations (MICs) APAE001
[7] = Pseudomonas aeruginosa, read-out: Minimum Inhibitory Concentrations (MICs) APAE002
[8] = read-out: Minimum Inhibitory Concentrations (MICs) APAE1096

Row | Compound | MIC [1, 3] [µg/mL] | MIC [1, 4] [µg/mL] | MIC [1, 5] [µg/mL] | Protein Binding PB (Geomean of fold change in MIC) [2] | MIC [1, 6] [µg/mL] | MIC [1, 7] [µg/mL] | MIC [1, 8] [µg/mL]
1 | CC(C)(N)[C@H](NC(=O)c1ccc(C#C/C=C/CO)cc1)C(=O)NO [Compound 3, (S,E)-N-(3-amino-1-(hydroxyamino)-3-methyl-1-oxobutan-2-yl)-4-(5-hydroxypent-3-en-1-ynyl)benzamide] | 1 to 8 (≈ 3.02 to 24.1 µM) | < 1 | < 1 | 1.3 |  |  | 
2 | CNC(C)(C)[C@H](NC(=O)c1ccc(C#CC#CCO)cc1)C(=O)NO [Compound 5, (S)—N-(1-(hydroxyamino)-3-methyl-3-(methylamino)-1-oxobutan-2-yl)-4-(5-hydroxypenta-1,3-diynyl)benzamide] | < 1 | < 1 | < 1 | 1.6 |  |  | 
3 | CC(C)(NCCO)[C@H](NC(=O)c1ccc(C#CC#CCO)cc1)C(=O)NO [Compound 6, (S)—N-(1-(hydroxyamino)-3-(2-hydroxyethylamino)-3-methyl-1-oxobutan-2-yl)-4-(5-hydroxypenta-1,3-diynyl)benzamide] | 1 to 8 (≈ 2.68 to 21.4 µM) | < 1 | < 1 | 2.6 |  |  | 
4 | CC(C)(N)[C@H](NC(=O)c1ccc(C#CC#CCCO)cc1)C(=O)NO [Compound 7, (S)—N-(3-amino-1-(hydroxyamino)-3-methyl-1-oxobutan-2-yl)-4-(6-hydroxyhexa-1,3-diynyl)benzamide] | < 1 | < 1 | < 1 | 2.5 |  |  | 
5 | CC(C)(N)[C@H](NC(=O)c1ccc(C#CCCO)cc1)C(=O)NO [Compound 8, (S)—N-(3-amino-1-(hydroxyamino)-3-methyl-1-oxobutan-2-yl)-4-(4-hydroxybut-1-ynyl)benzamide] | 8 to 16 (≈ 25.1 to 50.1 µM) | 1 to 8 (≈ 3.13 to 25.1 µM) | 1 to 8 (≈ 3.13 to 25.1 µM) | 0.9 |  |  | 
6 | CNC(C)(C)[C@H](NC(=O)c1ccc(C#CC#CCCO)cc1)C(=O)NO [Compound 9, (S)—N-(1-(hydroxyamino)-3-methyl-3-(methylamino)-1-oxobutan-2-yl)-4-(6-hydroxyhexa-1,3-diynyl)benzamide] |  |  |  | 1.5 | < 1 | < 1 | < 1
7 | CCNC(C)(C)[C@H](NC(=O)c1ccc(C#CC#CCCO)cc1)C(=O)NO [Compound 10, (S)—N-(3-(ethylamino)-1-(hydroxyamino)-3-methyl-1-oxobutan-2-yl)-4-(6-hydroxyhexa-1,3-diynyl)benzamide] |  |  |  | 2.2 | < 1 | < 1 | < 1
8 | CC(C)(NCCO)[C@H](NC(=O)c1ccc(C#CC#CCCO)cc1)C(=O)NO [Compound 11, (S)—N-(1-(hydroxyamino)-3-(2-hydroxyethylamino)-3-methyl-1-oxobutan-2-yl)-4-(6-hydroxyhexa-1,3-diynyl)benzamide] | 1 to 8 (≈ 2.58 to 20.6 µM) | < 1 | < 1 | 1.5 |  |  | 
9 | Cc1cc(CNC(C)(C)[C@H](NC(=O)c2ccc(C#CC#CCCO)cc2)C(=O)NO)no1 [Compound 12, (S)—N-(1-(hydroxyamino)-3-methyl-3-((5-methylisoxazol-3-yl)methylamino)-1-oxobutan-2-yl)-4-(6-hydroxyhexa-1,3-diynyl)benzamide] | 8 to 16 (≈ 18.2 to 36.5 µM) | 1 to 8 (≈ 2.28 to 18.2 µM) | 1 to 8 (≈ 2.28 to 18.2 µM) | 2.9 |  |  | 
10 | CC(C)(NCc1c[nH]cn1)[C@H](NC(=O)c1ccc(C#CC#CCCO)cc1)C(=O)NO [Compound 13, (S)—N-(3-((1H-imidazol-4-yl)methylamino)-1-(hydroxyamino)-3-methyl-1-oxobutan-2-yl)-4-(6-hydroxyhexa-1,3-diynyl)benzamide] | 1 to 8 (≈ 2.36 to 18.9 µM) | 1 to 8 (≈ 2.36 to 18.9 µM) | < 1 | 1.4 |  |  | 
11 | C[C@H](O)C#CC#Cc1ccc(C(=O)N[C@H](C(=O)NO)C(C)(C)N)cc1 [Compound 14, N—((S)-3-amino-1-(hydroxyamino)-3-methyl-1-oxobutan-2-yl)-4-((S)-5-hydroxyhexa-1,3-diynyl)benzamide] | 1 to 8 (≈ 2.91 to 23.3 µM) | < 1 | < 1 | 3.4 |  |  | 
12 | C[C@@H](O)C#CC#Cc1ccc(C(=O)N[C@H](C(=O)NO)C(C)(C)N)cc1 [Compound 15, N—((S)-3-amino-1-(hydroxyamino)-3-methyl-1-oxobutan-2-yl)-4-((R)-5-hydroxyhexa-1,3-diynyl)benzamide] | < 1 | < 1 | < 1 | 2.3 |  |  | 
13 | CNC(C)(C)[C@H](NC(=O)c1ccc(C#CC#C[C@H](C)O)cc1)C(=O)NO [Compound 16, N—((S)-1-(hydroxyamino)-3-methyl-3-(methylamino)-1-oxobutan-2-yl)-4-((S)-5-hydroxyhexa-1,3-diynyl)benzamide] | 1 to 8 (≈ 2.8 to 22.4 µM) | < 1 | < 1 | 3.6 |  |  | 
14 | CC(C)(N)[C@H](NC(=O)c1ccc(C#CC#CC(O)CO)cc1)C(=O)NO (stereo partly drawn) [Compound 17, N—((S)-3-amino-1-(hydroxyamino)-3-methyl-1-oxobutan-2-yl)-4-(5,6-dihydroxyhexa-1,3-diynyl)benzamide] |  |  |  | 1.5 | 1 to 8 (≈ 2.78 to 22.3 µM) | 1 to 8 (≈ 2.78 to 22.3 µM) | 8 to 16 (≈ 22.3 to 44.5 µM)
15 | CC(C)(N)[C@H](NC(=O)c1ccc(C#CC#CC(CO)CO)cc1)C(=O)NO [Compound 18, (S)—N-(3-amino-1-(hydroxyamino)-3-methyl-1-oxobutan-2-yl)-4-(6-hydroxy-5-(hydroxymethyl)hexa-1,3-diynyl)benzamide] | 8 to 16 (≈ 21.4 to 42.8 µM) | 1 to 8 (≈ 2.68 to 21.4 µM) | 1 to 8 (≈ 2.68 to 21.4 µM) | 1.6 |  |  | 
16 | CC(C)(N)[C@H](NC(=O)c1ccc(C#CC#CC(O)(CO)CCl)cc1)C(=O)NO (stereo partly drawn) [Compound 19, N—((S)-3-amino-1-(hydroxyamino)-3-methyl-1-oxobutan-2-yl)-4-(6-chloro-5-hydroxy-5-(hydroxymethyl)hexa-1,3-diynyl)benzamide] | 1 to 8 (≈ 2.45 to 19.6 µM) | 1 to 8 (≈ 2.45 to 19.6 µM) | < 1 | 1.0 |  |  | 
17 | CC(C)(N)[C@H](NC(=O)c1ccc(C#CC#CCC(O)CO)cc1)C(=O)NO (stereo partly drawn) [Compound 21, N—((S)-3-amino-1-(hydroxyamino)-3-methyl-1-oxobutan-2-yl)-4-(6,7-dihydroxyhepta-1,3-diynyl)benzamide] | 1 to 8 (≈ 2.68 to 21.4 µM) | 1 to 8 (≈ 2.68 to 21.4 µM) | 1 to 8 (≈ 2.68 to 21.4 µM) | 1.9 |  |  | 
18 | CNC(C)(C)[C@H](NC(=O)c1ccc(C#CC#CCC(O)CO)cc1)C(=O)NO (stereo partly drawn) [Compound 22, 4-(6,7-dihydroxyhepta-1,3-diynyl)-N—((S)-1-(hydroxyamino)-3-methyl-3-(methylamino)-1-oxobutan-2-yl)benzamide] | 1 to 8 (≈ 2.58 to 20.6 µM) | < 1 | < 1 | 1.6 |  |  | 
19 | CC(C)(N)[C@H](NC(=O)c1ccc(C#CC#C[C@@H]2[C@@H](CO)[C@H]2CO)cc1)C(=O)NO [Compound 23A, N—((S)-3-amino-1-(hydroxyamino)-3-methyl-1-oxobutan-2-yl)-4-(((1S,2R,3S)-2,3-bis(hydroxymethyl)cyclopropyl)buta-1,3-diynyl)benzamide] | 8 to 16 (≈ 20 to 40.1 µM) | 1 to 8 (≈ 2.5 to 20 µM) | 1 to 8 (≈ 2.5 to 20 µM) | 2.3 |  |  | 
